Assays:
Assay in all cases: kinase panel
Assay type in all cases: biochemical
GCK(h) = biological target: T1, GCK(h) (Homo sapiens, UniProt Q12851)
T1 sequence (Q12851 1-820): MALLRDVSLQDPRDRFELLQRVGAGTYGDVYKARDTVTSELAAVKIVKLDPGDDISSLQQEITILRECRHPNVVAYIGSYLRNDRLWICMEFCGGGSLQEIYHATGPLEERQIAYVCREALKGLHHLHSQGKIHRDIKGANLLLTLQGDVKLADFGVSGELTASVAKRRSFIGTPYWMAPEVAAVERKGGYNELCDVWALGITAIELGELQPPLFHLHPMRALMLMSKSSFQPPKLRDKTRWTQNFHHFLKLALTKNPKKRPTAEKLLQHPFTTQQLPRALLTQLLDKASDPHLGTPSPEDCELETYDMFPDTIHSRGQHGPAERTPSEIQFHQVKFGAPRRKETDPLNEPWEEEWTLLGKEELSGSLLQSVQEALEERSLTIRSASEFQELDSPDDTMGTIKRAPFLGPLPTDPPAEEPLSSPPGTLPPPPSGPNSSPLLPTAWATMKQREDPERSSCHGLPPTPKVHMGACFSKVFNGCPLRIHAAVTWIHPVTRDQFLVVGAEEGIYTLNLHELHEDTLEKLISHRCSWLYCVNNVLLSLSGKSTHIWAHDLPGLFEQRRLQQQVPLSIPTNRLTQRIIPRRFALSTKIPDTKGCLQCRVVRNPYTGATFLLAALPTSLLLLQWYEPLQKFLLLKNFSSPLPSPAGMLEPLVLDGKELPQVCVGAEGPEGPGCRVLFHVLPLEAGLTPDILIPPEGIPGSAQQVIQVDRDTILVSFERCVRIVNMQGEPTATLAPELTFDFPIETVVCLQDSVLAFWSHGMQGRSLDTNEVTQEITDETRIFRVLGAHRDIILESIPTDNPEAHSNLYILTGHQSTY
Text: (§1) We profiled three compounds from the series across the kinome (Table S1).
(§2) Ta b l e S1. The % inhibition of compounds 4, 5r [SU1261], and 6g [SU1349] against a
(§3) panel of kinase enzymes. We proϐiled three compounds from the series across 231
(§4) kinases. For SU1349, given its structural similarity with SU1261, we selected 98 from the
(§5) Tested kinase % inhibiƟon

MINK(h) = MINK(h) (Homo sapiens, UniProt Q8N4C8)
MINK(h), sequence (Q8N4C8 whole entry): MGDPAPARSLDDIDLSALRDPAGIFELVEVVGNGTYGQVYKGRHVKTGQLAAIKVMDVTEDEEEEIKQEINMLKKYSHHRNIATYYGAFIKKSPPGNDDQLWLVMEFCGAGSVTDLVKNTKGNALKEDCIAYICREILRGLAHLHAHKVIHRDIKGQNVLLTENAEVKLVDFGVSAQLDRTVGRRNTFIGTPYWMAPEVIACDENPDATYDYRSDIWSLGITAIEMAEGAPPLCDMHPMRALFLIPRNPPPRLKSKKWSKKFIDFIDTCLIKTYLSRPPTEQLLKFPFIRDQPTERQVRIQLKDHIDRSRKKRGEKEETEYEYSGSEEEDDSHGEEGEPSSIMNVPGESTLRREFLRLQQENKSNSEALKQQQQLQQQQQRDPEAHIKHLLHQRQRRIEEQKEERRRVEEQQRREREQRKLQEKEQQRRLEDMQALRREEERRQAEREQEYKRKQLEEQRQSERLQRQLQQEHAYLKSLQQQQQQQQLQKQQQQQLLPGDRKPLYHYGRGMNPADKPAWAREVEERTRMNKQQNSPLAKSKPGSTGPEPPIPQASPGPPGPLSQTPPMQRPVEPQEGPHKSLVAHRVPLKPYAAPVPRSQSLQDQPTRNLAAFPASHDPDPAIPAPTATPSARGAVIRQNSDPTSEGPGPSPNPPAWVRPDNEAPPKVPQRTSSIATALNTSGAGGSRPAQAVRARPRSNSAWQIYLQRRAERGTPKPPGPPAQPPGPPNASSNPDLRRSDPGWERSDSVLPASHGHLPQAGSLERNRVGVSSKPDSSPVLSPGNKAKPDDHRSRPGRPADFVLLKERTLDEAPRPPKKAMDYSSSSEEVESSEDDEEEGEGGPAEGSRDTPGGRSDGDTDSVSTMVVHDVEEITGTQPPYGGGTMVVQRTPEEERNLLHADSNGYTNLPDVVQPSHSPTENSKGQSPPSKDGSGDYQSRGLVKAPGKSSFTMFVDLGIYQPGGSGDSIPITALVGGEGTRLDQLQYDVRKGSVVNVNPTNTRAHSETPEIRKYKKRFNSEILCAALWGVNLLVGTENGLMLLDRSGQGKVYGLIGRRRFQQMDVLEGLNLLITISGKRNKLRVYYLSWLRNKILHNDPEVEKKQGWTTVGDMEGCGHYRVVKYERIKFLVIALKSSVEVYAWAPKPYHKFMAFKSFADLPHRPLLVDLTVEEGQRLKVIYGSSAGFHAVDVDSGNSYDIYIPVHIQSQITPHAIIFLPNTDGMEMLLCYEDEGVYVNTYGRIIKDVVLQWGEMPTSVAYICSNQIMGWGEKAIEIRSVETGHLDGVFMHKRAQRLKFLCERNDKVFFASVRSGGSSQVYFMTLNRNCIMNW
Text: as §1, §2, §3, §4, §5

PKD2(h) = biological target: T2, PKD2(h) (Homo sapiens, UniProt Q9BZL6)
T2 sequence (Q9BZL6 1-878): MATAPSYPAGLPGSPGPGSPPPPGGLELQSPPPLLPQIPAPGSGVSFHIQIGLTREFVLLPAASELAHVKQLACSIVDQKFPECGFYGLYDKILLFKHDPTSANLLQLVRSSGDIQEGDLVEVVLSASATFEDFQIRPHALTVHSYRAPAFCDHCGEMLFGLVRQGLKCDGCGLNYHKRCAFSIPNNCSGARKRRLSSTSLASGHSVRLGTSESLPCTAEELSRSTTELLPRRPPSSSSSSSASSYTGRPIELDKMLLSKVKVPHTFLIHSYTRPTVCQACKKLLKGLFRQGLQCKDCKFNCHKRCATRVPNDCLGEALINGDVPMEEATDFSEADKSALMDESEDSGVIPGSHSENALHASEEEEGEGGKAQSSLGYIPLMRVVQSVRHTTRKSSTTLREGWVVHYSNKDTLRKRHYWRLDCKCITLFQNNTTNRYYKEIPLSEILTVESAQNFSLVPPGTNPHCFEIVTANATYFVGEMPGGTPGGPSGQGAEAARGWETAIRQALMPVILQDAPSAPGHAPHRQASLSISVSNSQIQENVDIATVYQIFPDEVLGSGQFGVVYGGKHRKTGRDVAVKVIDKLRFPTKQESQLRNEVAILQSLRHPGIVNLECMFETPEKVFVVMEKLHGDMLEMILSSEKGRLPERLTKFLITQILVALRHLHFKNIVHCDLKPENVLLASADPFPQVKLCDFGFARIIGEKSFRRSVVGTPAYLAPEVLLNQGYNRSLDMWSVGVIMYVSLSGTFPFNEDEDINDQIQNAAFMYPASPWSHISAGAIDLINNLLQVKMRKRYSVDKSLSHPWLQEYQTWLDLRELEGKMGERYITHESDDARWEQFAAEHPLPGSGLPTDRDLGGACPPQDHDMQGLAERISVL
Text: as §1, §2, §3, §4, §5

CaMKIIγ(h) = CaMKIIγ(h) (Homo sapiens, UniProt Q13555)
CaMKIIγ(h), sequence (Q13555 whole entry): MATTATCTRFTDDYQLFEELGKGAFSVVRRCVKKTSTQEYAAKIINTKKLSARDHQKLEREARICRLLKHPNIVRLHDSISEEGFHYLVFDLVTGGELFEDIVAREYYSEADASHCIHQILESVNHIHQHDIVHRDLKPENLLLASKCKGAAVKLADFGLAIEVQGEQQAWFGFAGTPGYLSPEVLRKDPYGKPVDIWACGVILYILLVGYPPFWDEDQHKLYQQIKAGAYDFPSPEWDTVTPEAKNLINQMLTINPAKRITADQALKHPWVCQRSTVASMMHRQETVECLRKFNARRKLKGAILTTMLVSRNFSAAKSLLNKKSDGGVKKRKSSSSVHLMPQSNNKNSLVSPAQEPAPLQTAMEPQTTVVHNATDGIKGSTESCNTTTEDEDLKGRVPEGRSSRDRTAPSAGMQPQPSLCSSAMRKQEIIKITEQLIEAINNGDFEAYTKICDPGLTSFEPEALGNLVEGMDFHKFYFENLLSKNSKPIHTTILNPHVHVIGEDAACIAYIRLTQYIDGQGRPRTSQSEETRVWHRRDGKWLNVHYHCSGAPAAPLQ
Text: as §1, §2, §3, §4, §5

Abl(h) = Abl(h) (Homo sapiens, UniProt P00519)
Abl(h), sequence (P00519 whole entry): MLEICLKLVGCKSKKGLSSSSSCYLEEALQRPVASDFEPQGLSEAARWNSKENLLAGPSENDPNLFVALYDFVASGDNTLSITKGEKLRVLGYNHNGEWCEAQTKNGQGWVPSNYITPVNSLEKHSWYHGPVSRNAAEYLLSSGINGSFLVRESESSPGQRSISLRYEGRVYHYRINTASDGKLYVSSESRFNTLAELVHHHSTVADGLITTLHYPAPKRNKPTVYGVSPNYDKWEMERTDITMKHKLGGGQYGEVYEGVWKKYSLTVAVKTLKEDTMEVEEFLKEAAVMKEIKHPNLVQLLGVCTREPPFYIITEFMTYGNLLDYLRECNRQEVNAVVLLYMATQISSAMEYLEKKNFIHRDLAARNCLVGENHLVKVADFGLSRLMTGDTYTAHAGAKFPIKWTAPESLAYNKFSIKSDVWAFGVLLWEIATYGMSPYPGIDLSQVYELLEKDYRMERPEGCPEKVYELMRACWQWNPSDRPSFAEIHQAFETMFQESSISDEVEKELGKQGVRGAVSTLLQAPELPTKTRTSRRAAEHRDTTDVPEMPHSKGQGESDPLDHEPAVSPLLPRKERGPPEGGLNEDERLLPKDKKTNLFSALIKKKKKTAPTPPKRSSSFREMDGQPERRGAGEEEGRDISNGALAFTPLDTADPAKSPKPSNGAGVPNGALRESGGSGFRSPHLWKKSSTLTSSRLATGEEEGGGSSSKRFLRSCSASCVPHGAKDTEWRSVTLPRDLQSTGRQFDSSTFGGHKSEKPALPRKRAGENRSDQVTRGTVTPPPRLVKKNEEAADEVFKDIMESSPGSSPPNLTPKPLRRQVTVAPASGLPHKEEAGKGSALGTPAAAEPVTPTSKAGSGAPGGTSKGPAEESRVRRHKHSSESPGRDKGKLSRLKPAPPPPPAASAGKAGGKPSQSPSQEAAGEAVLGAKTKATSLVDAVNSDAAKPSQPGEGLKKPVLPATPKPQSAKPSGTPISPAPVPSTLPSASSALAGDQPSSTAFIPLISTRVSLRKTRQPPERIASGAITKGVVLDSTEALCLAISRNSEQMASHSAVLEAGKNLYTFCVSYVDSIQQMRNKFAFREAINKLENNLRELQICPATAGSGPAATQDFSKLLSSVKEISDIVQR
Text: as §1, §2, §3, §4, §5

SAPK3(h) = biological target: T3, SAPK3(h) (Homo sapiens, UniProt P53778)
T3 sequence (P53778 1-367): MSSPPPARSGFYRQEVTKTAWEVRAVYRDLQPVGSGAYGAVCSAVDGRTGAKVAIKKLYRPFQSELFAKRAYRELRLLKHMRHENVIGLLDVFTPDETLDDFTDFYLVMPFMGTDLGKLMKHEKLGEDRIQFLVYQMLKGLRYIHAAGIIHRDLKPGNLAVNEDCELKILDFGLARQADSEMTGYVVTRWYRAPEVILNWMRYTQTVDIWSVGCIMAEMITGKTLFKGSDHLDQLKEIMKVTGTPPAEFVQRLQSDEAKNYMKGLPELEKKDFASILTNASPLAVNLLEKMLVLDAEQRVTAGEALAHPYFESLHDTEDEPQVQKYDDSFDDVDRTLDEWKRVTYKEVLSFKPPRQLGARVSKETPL
Text: as §1, §2, §3, §4, §5

Nc1n[nH]c2ccc(-c3ccnc4[nH]c(-c5cccc(OCc6ccccc6)c5)cc34)cc12 [Compound 5r [SU1261]]
inhibition at 1 µM (GCK(h)): 86% | inhibition at 1 µM (MINK(h)): 51% | inhibition at 1 µM (PKD2(h)): -1% | inhibition at 1 µM (CaMKIIγ(h)): 84% | inhibition at 1 µM (Abl(h)): 44% | inhibition at 1 µM (SAPK3(h)): 49%

Nc1n[nH]c2ccc(-c3ccnc4[nH]c(-c5ccnc(OCc6ccccc6)c5)cc34)cc12 [Compound 6g [SU1349]]
inhibition at 1 µM (GCK(h)): 71% | inhibition at 1 µM (MINK(h)): 41% | inhibition at 1 µM (PKD2(h)): -5% | inhibition at 1 µM (CaMKIIγ(h)): 46% | inhibition at 1 µM (Abl(h)): 15% | inhibition at 1 µM (SAPK3(h)): 44%

Nc1n[nH]c2ccc(-c3ccnc4[nH]c(-c5ccccc5)cc34)cc12 [Compound 4]
inhibition at 1 µM (GCK(h)): 98% | inhibition at 1 µM (MINK(h)): 92% | inhibition at 1 µM (PKD2(h)): 8% | inhibition at 1 µM (CaMKIIγ(h)): 93% | inhibition at 1 µM (Abl(h)): 86% | inhibition at 1 µM (SAPK3(h)): 99%
